Assay results reported in patent EP1408948B1, “THYROID THERAPEUTIC AGENT COMPRISING PARTIAL GLYCERIDES AND DEXTRINE” (BERLIN-CHEMIE Aktiengesellschaft, priority 2001, dated 2003).

Key:
[1] = oral, steady state after 6 weeks of medication, patients on long-term medication; cited from earlier work
[2] = Bioavailability studies of levothyroxine sodium tablets of different strengths (pharmacokinetic parameters, dose linearity); assay type: in vivo; settings: tablets of 50, 100, 150 and 200 µg made from one base formulation, oral
Description: Die ermittelten pharmakokinetischen Parameter der in vivo geprüften 50, 100, 150 und 200 µg Levothyroxin-Natrium enthaltenden Tabletten sind in Tabelle 1 aufgeführt.

[3] = In vitro release of Levothyroxin-Natrium from tablets, paddle apparatus; assay type: physicochemical; settings: tablets of 50, 100, 150, 200 µg, 100 rpm, 500 ml phosphate buffer pH 7,4, data only in Fig. 1-4
From the text: Die folgenden in vitro Untersuchungen der erfindungsgemäß hergestellten Tabletten belegen, dass der Wirkstoff Levothyroxin-Natrium aus den Tabletten der unterschiedlichen Dosierungen in gleicher Geschwindigkeit und […] Ausmaß freigesetzt und somit dem Körper zur Verfügung gestellt werden kann. Die Untersuchungen zur Freisetzung wurden mit den Tabletten gemäß den Beispielen 2 und 3 durchgeführt. In den Figuren 1 bis 4 ist die jeweilige Freisetzung dargestellt. An […] % angegeben, an […] Zeit aufgetragen. Die Balken geben den Vertrauensbereich des […] von Levothyroxin-Natrium aus Tabletten (50 μg), Tablettenmasse 52 mg, Paddle-Apparatur, 100 rpm, […]: 500 ml Phosphatpuffer pH 7,4; • Fig. 2: Freisetzung von Levothyroxin-Natrium aus Tabletten (100 μg), Tablettenmasse 104 mg, Paddle-Apparatur, 100 rpm, […]: 500 ml Phosphatpuffer pH 7, 4; • Fig. 3: Freisetzung von Levothyroxin-Natrium aus Tabletten (150 μg), Tablettenmasse 156 mg, Paddle-Apparatur, 100 rpm, […]: 500 ml Phosphatpuffer pH 7,4 und • Fig. 4: Freisetzung von Levothyroxin-Natrium aus Tabletten (200 μg), Tablettenmasse 208 mg, Paddle-Apparatur, 100 rpm, […]: 500 ml Phosphatpuffer pH 7,4.

SMILES	Kinetik (L-Thyroxin-Serumkonzentration, AUC 0 x 24, Cmax, Ctrough) [1]	Dosislinearität [2]	Freisetzung von Levothyroxin-Natrium aus Tabletten [3]
N[C@@H](Cc1cc(I)c(Oc2cc(I)c(O)c(I)c2)c(I)c1)C(=O)O [L-Thyroxin]	nicht-linearen Kinetik	–	–
N[C@@H](Cc1cc(I)c(Oc2cc(I)c(O)c(I)c2)c(I)c1)C(=O)O [Levothyroxin-Natrium]	–	klare Dosislinearität	in gleicher Geschwindigkeit und gleichem Ausmaß freigesetzt
